{"source": "patent US11345701B1", "about": "“KRAS mutant protein inhibitors” (Jacobio Pharmaceuticals Co., Ltd., priority 2021, dated 2022)", "key": {"[1]": {"tested_on": "NCI-H358 cells expressing KRAS G12C mutant protein", "assay": "Phospho-ERK1/2(THR202/TYR204) HTRF assay", "assay_type": "cell-based", "protocol": "The NCI-H358 cells in culture medium were seeded in 96-well plates at a concentration of 40,000 cells/well and then put in a 37° C./5% CO2 cell incubator to incubate overnight. […] After 2 hours incubation in a 37° C./5% CO2 cell incubator, the assay medium in 96-well plates was removed, then 50 μL of 1× blocking reagent-supplemented lysis buffer (Cisbio) was added and the plates were incubated at 25° C. for 45 min with shaking. 10 μL of cell lysates from the 96-well plates were transferred to a 384-well plate (Greiner) containing 2.5 μL/well HTRF® pre-mixed antibodies (Cisbio 64AERPEH). Incubate 4 hours at 25° C. and then read HTRF signals on Tecan Spark multimode microplate reader. The data were analyzed using a 4-parameter logistic model to calculate IC50 values."}, "[2]": {"assay": "Mouse pharmacokinetic study", "assay_type": "in vivo, Balb/c mouse", "protocol": "The purpose of this study was to evaluate the pharmacokinetic properties of compounds in Balb/c mouse (♀) following single dose administration. The day before administration, mice were fasted overnight and free access to water. Six mice were needed for each compound and the six mice were divided into two groups (n=3/group), group A and group B. Mice in group A were treated with a single 3 mg/kg dose of compound (iv). Mice in group B were treated with a single 10 mg/kg dose of compound (po). For each mouse in group A, blood samples were collected at pre-dose, and at the time point of 0.083, 0.25, 0.5, 1, 2, 4, 6, 8 and 24 h post-dose. For each mouse in group B, blood samples were collected at pre-dose, and at the time point of 0.25, 0.5, 1, 2, 3, 4, 6, 8 and 24 h post-dose. Blood samples were placed on ice until centrifugation to obtain plasma samples. The plasma samples were stored at −80° C. until analysis. The concentration of compound in plasma samples was determined using a LC-MS/MS method."}, "[3]": {"assay": "Cynomolgus monkey pharmacokinetic study", "assay_type": "in vivo", "details": "for CL / VSS / AUC0-24h / Cmax / Oral BA (F %): cynomolgus monkey; for CL / VSS: 1 mg/kg, iv; for AUC0-24h / Cmax / Oral BA (F %) / AUC0-24 h relative to the control compound Amg-510: 3 mg/kg, po", "protocol": "The purpose of this study was to evaluate the pharmacokinetic properties of compounds in cynomolgus monkey following single dose administration. The day before administration, monkeys were fasted overnight and free access to water. Four monkeys are needed for each compound and the four monkeys were divided into two groups, group A and group B (one male (♂) and one female (♀) in each group). Monkeys in group A were treated with a single 1 mg/kg dose of compound (iv). Monkeys in group B were treated with a single 3 mg/kg dose of compound (po). For monkeys in group A, blood samples were collected at pre-dose, and at the time point of 0.083, 0.25, 0.5, 1, 2, 4, 6, 8 and 24 h post-dose. For monkeys in group B, blood samples were collected at pre-dose, and at the time point of 0.25, 0.5, 1, 2, 4, 6, 8 and 24 h post-dose. Blood samples were placed on ice until centrifugation to obtain plasma samples. The plasma samples were stored at −80° C. until analysis. The concentration of compound in plasma samples was determined using a LC-MS/MS method."}, "[4]": {"tested_on": "NCI-H1373 (KRAS^G12C) xenograft", "assay": "Efficacy in NCI-H1373 (KRAS G12C) xenograft model", "assay_type": "in vivo, BALB/c nude mice", "details": "10 mg/kg, QD", "protocol": "NCI-H1373 (KRAS^G12C) cells (5.0E+06 cells) were injected subcutaneously into the right flank of female BALB/c nude mice (6-8 weeks) in a mixture with PBS and Matrigel (Corning) (PBS/Matrigel=1:1(v/v)). Mice were monitored daily and caliper measurements began when tumors became visible. Tumor volume was calculated by measuring two perpendicular diameters using the formula: (L*W^2)/2 in which L and W refer to the length and width tumor diameter respectively. When the average tumor volume reached 150-200 mm^3, mice were grouped randomly (n=6/group) and treated with compounds. Tumor volume and mice weight was measured twice a week during treatment (˜ 3 weeks). Tumor growth inhibition rates were calculated by TGI %=(1−(Vt−Vt0)/(Vc−Vc0))*100%, wherein Vc and Vt are the mean tumor volume of control and treated groups at the end of the study respectively, and Vc0 and Vt0 are the mean tumor volume of control and treated groups at the start respectively. The results are in the following Table 7 and FIG. 1: […]"}, "[5]": {"tested_on": "SW837 (KRAS^G12C) xenograft", "assay": "Safety exploration in SW837 (KRAS G12C) xenograft model", "assay_type": "in vivo", "details": "400 mg/kg, po, QD for 22 days, female NOD SCID mice, FIG. 2", "protocol": "SW837 (KRAS^G12C) cells (1.0E+07 cells) were injected subcutaneously into the right flank of female NOD SCID mice (6-8 weeks) in a mixture with PBS and Matrigel (Corning) (PBS/Matrigel=1:1(v/v)). Mice were monitored daily and caliper measurements began when tumors became visible. Tumor volume was calculated by measuring two perpendicular diameters using the following formula: (L*W^2)/2 in which L and W refer to the length and width tumor diameter respectively. After mice were grouped to study the efficacy, the remaining mice (n=8) were used to explore the safety. The mice were treated with 400 mg/kg Compound 2-1 (po, QD) for 22 days, and mice body weight was measured twice a week during treatment. From FIG. 2, it can be seen that the Compound 2-1 has good safety."}, "[6]": {"details": "Balb/c mouse (female), 3 mg/kg, iv"}, "[7]": {"details": "Balb/c mouse (female), 10 mg/kg, po"}}, "data": [{"smiles": "C=CC(=O)N1CCN(c2nc(=O)n(-c3c(C)ccnc3C(C)C)c3nc(-c4c(N)c(F)c(F)c(F)c4F)c(F)cc23)[C@@H](C)C1", "note": "(atropisomer, axis not shown; (M)) [Compound 2-1, (M)-4-((S)-4-acryloyl-2-methylpiperazin-1-yl)-7-(2-amino-3,4,5,6-tetrafluorophenyl)-6-fluoro-1-(2-isopropyl-4-methylpyridin-3-yl)pyrido[2,3-d]pyrimidin-2(1H)-one]", "values": [{"measurement": "IC50", "setting": "[1]; 2 hours incubation, read-out: p-ERK IC50", "value": 14.5, "unit": "nM"}, {"measurement": "Inhibitory activity relative to the control compound Amg-510", "setting": "[1]; phospho-ERK1/2 HTRF assay", "value": "about 2 times"}, {"measurement": "CL", "setting": "[2]; [6]", "value": 38.9, "unit": "mL/min/kg"}, {"measurement": "Vss", "setting": "[2]; [6]", "value": 1.28, "unit": "L/kg"}, {"measurement": "AUC0-24h", "setting": "[2]; [7]", "value": 2618, "unit": "ng·h/mL"}, {"measurement": "Cmax", "setting": "[2]; [7]", "value": 2440, "unit": "ng/mL"}, {"measurement": "Oral BA (F %)", "setting": "[2]; [7]", "value": 58.9, "unit": "%"}, {"measurement": "Pharmacokinetic properties in words", "setting": "[2]; mouse model, 3 mg/kg iv and 10 mg/kg po", "value": "good pharmacokinetic properties"}, {"measurement": "CL", "setting": "[3]; female", "value": 8.20, "unit": "mL/min/kg"}, {"measurement": "VSS", "setting": "[3]; female", "value": 0.507, "unit": "L/kg"}, {"measurement": "AUC0-24h", "setting": "[3]; female", "value": 2494, "unit": "ng·h/mL"}, {"measurement": "Cmax", "setting": "[3]; female", "value": 1060, "unit": "ng/mL"}, {"measurement": "Oral BA (F %)", "setting": "[3]; female", "value": 41.2, "unit": "%"}, {"measurement": "CL", "setting": "[3]; male", "value": 8.26, "unit": "mL/min/kg"}, {"measurement": "VSS", "setting": "[3]; male", "value": 0.555, "unit": "L/kg"}, {"measurement": "AUC0-24h", "setting": "[3]; male", "value": 3253, "unit": "ng·h/mL"}, {"measurement": "Cmax", "setting": "[3]; male", "value": 1580, "unit": "ng/mL"}, {"measurement": "Oral BA (F %)", "setting": "[3]; male", "value": 54.1, "unit": "%"}, {"measurement": "AUC0-24 h relative to the control compound Amg-510", "setting": "[3]; female cynomolgus monkey", "value": "more than 10 times"}, {"measurement": "AUC0-24 h relative to the control compound Amg-510", "setting": "[3]; male cynomolgus monkey", "value": "more than 15 times"}, {"measurement": "Pharmacokinetic properties in words", "setting": "[3]; monkey model", "value": "excellent pharmacokinetic properties"}, {"measurement": "Tumor response in words", "setting": "[4]; Table 7 and FIG. 1", "value": "regression of the tumor has been observed"}, {"measurement": "Tumor volume at the end (Day 21)", "setting": "[4]; female BALB/c nude mice, Day 21", "value": 27, "unit": "mm^3"}, {"measurement": "Tumor volume at the start", "setting": "[4]; female BALB/c nude mice, baseline", "value": 192, "unit": "mm^3"}, {"measurement": "TGI %", "setting": "[4]; female BALB/c nude mice, end of study (Day 21)", "value": 110, "unit": "%"}, {"measurement": "Safety judged from mice body weight", "setting": "[5]", "value": "good safety"}]}]}
